Data published in US11084783B2, “O-alkyl-benzylideneguanidine derivatives and therapeutic use for the treatment of disorders associated with an accumulation of misfolded proteins” (INFLECTIS BIOSCIENCE, priority 2014, dated 2021).

Experiments:
[1] = test system: mouse embryonic fibroblasts lipofected with poly I:C; assay: In vitro inflammation/infection model: poly I:C induced mouse embryonic fibroblasts; assay type: cell-based; conditions: 25 μM, 6h, IFN-beta ELISA in culture supernatants
Protocol: Mouse Embryonic Fibroblasts (MEFs) were lipofected with poly I:C and treated with […] compounds of the invention (25 μM) for 6h. After 6h of culture, elF2alpha-phosphorylation (elF2a-P) and PPP1R15A (GADD34) expression was monitored by western blotting, while type-1 Interferon(IFN)-beta production was quantified in culture supernatants by ELISA. Control (nt) and poly I:C/DMSO are respectively negative and positive controls. Poly I:C (polyinosinic:polycytidylic acid or polyinosinic-polycytidylic acid sodium salt) is an immunostimulant used to simulate viral infections. Poly I:C which is structurally similar to double-stranded RNA, is known to interact with toll-like receptor 3 which is expressed in the intracellular compartments of B-cells and dendritic cells. Guanabenz (25 μM) was used as reference inhibitory compound.
MEFs were cultured in DMEM, 10% FCS (HyClone, Perbio), 100 units/ml penicillin, 100 μg/ml streptomycin, 2 mM glutamine, 1× MEM non-essential amino acids and 50 μM 2-mercaptoethanol. MEFS were treated for the indicated time with 10 μg/ml poly I:C (InvivoGen) in combination with lipofectamine 2000 (Invitrogen).
Cells were lysed in 1% Triton X-100, 50 mM Hepes, 10 mM NaCl, 2.5 mM MgCl2, 2 mM EDTA, 10% glycerol, supplemented with Complete Mini Protease Inhibitor Cocktail Tablets (Roche). Protein quantification was performed using the BCA Protein Assay (Pierce). 25-50 μg of Triton X-100-soluble material was loaded on 2%-12% gradient or 8% SDS-PAGE before immunoblotting and chemi-luminescence detection (SuperSignal West Pico Chemi-luminescent Substrate, Pierce). Rabbit polyclonal antibodies recognizing GADD34 (C-19) were from Santa Cruz Biotechnology and anti-elF2alpha[pS^52] were from Invitrogen.
IFN-beta quantification in culture supernatant was performed using the Mouse Interferon Beta ELISA kit (PBL Interferon Source) according to manufacturer instructions.
Normal response of MEFs to poly I:C is characterized by PPP1R15A expression, increase in elF2alpha-P (variable in time and related to the levels PPP1R15A expression) mediated by PKR activation and type-I IFN production (range 500 to 700 pg/ml). Knock out PPP1R15A MEFs are unable to produce this cytokine in response to poly I:C.
The potency of compounds of the invention to inhibit PPP1R15A was evaluated by measuring the increase of elF2alpha phosphorylation, the decrease of PPP1R15A expression due to its own pharmacological inhibition resulting in general protein synthesis inhibition and type-I IFN production.

human alpha2A receptor = molecular target: T1, human alpha2A receptor (Homo sapiens, UniProt P08913); assay: Functional GPCR assay for adrenergic α2A receptor (CellKey detection method); assay type: cell-based; conditions: agonist activity, CHO cells expressing human alpha2A receptor, impedance (CellKey); read-out: Functional adrenergic alpha2 receptor assay EC50
T1 construct: CHO cells endogenously expressing human alpha2A receptor; endogenous in cells; host or cells: CHO cells
T1 sequence (P08913 1-465): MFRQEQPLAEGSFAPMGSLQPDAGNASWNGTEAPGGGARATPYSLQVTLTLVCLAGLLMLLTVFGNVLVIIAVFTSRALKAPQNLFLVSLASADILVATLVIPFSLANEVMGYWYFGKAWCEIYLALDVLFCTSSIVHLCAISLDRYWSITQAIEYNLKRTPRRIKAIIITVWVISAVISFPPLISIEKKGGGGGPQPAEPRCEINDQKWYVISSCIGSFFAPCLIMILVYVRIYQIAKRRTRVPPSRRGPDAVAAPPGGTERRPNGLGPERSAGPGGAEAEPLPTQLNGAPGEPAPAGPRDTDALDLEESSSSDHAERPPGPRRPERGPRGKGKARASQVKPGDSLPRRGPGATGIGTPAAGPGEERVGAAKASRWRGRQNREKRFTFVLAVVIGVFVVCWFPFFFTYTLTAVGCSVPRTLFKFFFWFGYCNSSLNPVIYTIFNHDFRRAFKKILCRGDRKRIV
Protocol: The agonist activity of compounds was evaluated on CHO cells […] expressing human alpha2A receptor and was determined by measuring their effects on impedance modulation using the CellKey detection method. Cells were seeded onto 96-well plate at density of 6×10^4 cells/well in HBSS buffer (Invitrogen)+20 mM HEPES (Invitrogen) with 0.1% BSA and are allowed to equilibrate for 60 min at 28° C. before the start of the experiment. Plates were placed onto the system and measurements were made at a temperature of 28° C. Solutions were added simultaneously to all 96 wells using an integrated fluidics system: HBSS (basal control), reference agonist at 100 nM (stimulated control), reference agonist (EC50 determination) or the test compounds. Impedance measurements are monitored for 10 minutes after ligand addition. The standard reference agonist is epinephrine, which is tested in each experiment at several concentrations to generate a concentration-response curve from which its EC50 value is calculated.
Dose-response data from test compounds were analysed with Hill software using non-linear regression analysis of the concentration-response curves generated with mean replicate values using Hill equation curve fitting.

Min6 insulinoma cell = assay: Min6 cell line cytoprotection from ER stress (tunicamycin); assay type: cell-based; conditions: 6 hour exposure to tunicamycin 2.5 μg/mL, different concentrations, viability 72h
Protocol: (§1) Cells were plated in 96 well plates at a density of 0.5.10^6 cells/mL for Min6 cell line, 0,4.10^6 cells/mL for INS1 cell line the day before the treatment. ER stress was elicited by addition of 2.5 μg/mL tunicamycin (Sigma Aldrich) together with phosphatases inhibitors. Media were changed 6h later with fresh media and the cytoprotection was maintained by the addition of phosphatases inhibitors. Cell viability was assessed by measuring the reduction of WST-8 into formazan using Cell Counting Kit-8 (Sigma) according to the supplier's recommendation, 72h after tunicamycin treatment.

HeLa cells [2] = assay: Cytoprotection from ER stress (tunicamycin), cell viability by WST-8; assay type: cell-based; design: key to Cytoprotection from ER stress compared to guanabenz: +: lower cytoprotective effect compared to Guanabenz; ++: similar cytoprotective effect compared to Guanabenz; +++: higher cytoprotective effect compared to Guanabenz; conditions: HeLa cells, 6 hour exposure to tunicamycin 5 μg/mL, compounds 0.5-10 μM, viability 48 h or 72 h
From the text: Cytoprotection against ER stress can be measured by a suitable assay. For example, cytoprotection can be measured in HeLa cells in which ER stress is elicited by the addition of media containing tunicamycin, a mixture of homologous nucleoside antibiotics that inhibits the UDP-HexNAc: polyprenol-P HexNAc-1-P family of enzymes and is used to induce unfolded protein response. Cell viability can be detected in the presence and absence of inhibitor compounds after a set period of time, by measuring the reduction of WST-8 into formazan using a standard cell viability kit (such as Cell Viability Counting Kit-8 from Dojindo). Cytoprotection from ER stress is measured in terms of the percentage increase in viable cells (relative to control) after ER stress. Further details of a suitable assay are set forth in the accompanying Examples section.
This assay is described in Tsaytler et al. (Science 2011). HeLa Cells were cultured in Eagle's Minimum Essential Medium (EMEM) supplemented with Glutamine, Sodium Pyruvate, Non-Essential Amino Acids, Penicillin and Streptomycin containing 10% Foetal Bovine Serum (FBS), at 37° C. in 5% CO2 atmosphere. Cells were plated in 96 well plates at a density of 17,000 cells/mL the day before the treatment. ER stress was elicited by addition of 5 μg/mL tunicamycin (Sigma-Aldrich) together with PPP1R15A inhibitors (0.5-10 μM). Media were changed 6h later with fresh media and the cytoprotection was maintained by the addition of PPP1R15A inhibitors (0.5-10 μM). Cell viability was assessed by measuring the reduction of WST-8 into formazan using Cell Counting Kit-8 (Sigma) according to the supplier's recommendation, 48 h or 72h after tunicamycin treatment. Cytoprotection from ER stress is measured in terms of cytoprotective potency effect compared to the reference compound Guanabenz (Tsaytler et al., Science 2011) after ER stress: • ‘+’ no cytoprotective effect; • ‘+’ lower cytoprotective effect compared to Guanabenz; • ‘++’ similar cytoprotective effect compared to Guanabenz; • ‘+++’ higher cytoprotective effect compared to Guanabenz.
Table 1 summarizes the results of cytoprotective effect of different compounds of the invention, compared to guanabenz, after the stress induced by a 6 hour exposure of tunicamycin.

INS1 insulinoma cell = assay: INS1 cell line cytoprotection from ER stress (tunicamycin); assay type: cell-based; conditions: 6 hour exposure to tunicamycin 2.5 μg/mL, different concentrations, viability 72h
Protocol: as §1

Min6 cells = assay: Protection against accumulation of misfold prone Insulin Akita; assay type: cell-based; conditions: Min6 cells nucleofected with Insulin Akita, viability 9 days after treatment
Protocol: Min6 cells were nucleofected with Insulin^Akita mutant constructs and seeded in 96 well-plates at 300,000 cells/mL and 24h later, cells were treated with molecules or left untreated. As a control, cells were nucleofected with non-relevant plasmid. 6 days later, a selective agent was added (G418). Cell viability was assessed by measuring the reduction of WST-8 into formazan using Cell Counting Kit-8 (Sigma) according to the supplier's recommendation, 9 days after treatment.

HeLa cells [3] = conditions: tunicamycin; Tsaytler et al., Science 2011; cited from earlier work

Compound | prevention of type-I IFN production (FIG. 9) [1] | EC50 (human alpha2A receptor) [µM] | prevention of Min6 insulinoma cell death (FIG. 7) (Min6 insulinoma cell) | Cytoprotection from ER stress compared to guanabenz (HeLa cells [2]) | prevention of INS1 insulinoma cell death (FIG. 8) (INS1 insulinoma cell) | prevention of cell death associated with accumulation of misfold prone Insulin Akita (FIG. 6) (Min6 cells) | protection of cells from cytotoxic ER stress (HeLa cells [3])
CCONC(=N)N/N=C/c1ccncc1Cl [Compound 16, 2-[(3-chloropyridin-4-yl)methylidene]-N-ethoxyhydrazinecarboximidamide] | prevent type-I IFN production | > 33.3 | prevent Min6 insulinoma cell death | + | prevent INS1 insulinoma cell death | prevent cell death | –
CCC1(C2=NCCN2)Cc2ccccc2O1 (centres unmarked) [efaroxan] | – | – | – | – | – | – | Neither the α2-adrenergic receptor agonist clonidine, nor the α2-adrenergic receptor antagonist efaroxan protected cells
Clc1cccc(Cl)c1N=C1NCCN1 [clonidine] | – | – | – | – | – | – | Neither the α2-adrenergic receptor agonist clonidine, nor the α2-adrenergic receptor antagonist efaroxan protected cells
